Reference: publication PMC9309159, “Identification of heptapeptides targeting a lethal bacterial strain in septic mice through an integrative approach” (Signal Transduction and Targeted Therapy, 2022)

Key:
[1] = system: Pseudomonas aeruginosa (ATCC27853); assay: Growth of Pseudomonas aeruginosa; assay type: cell-based; conditions: peptide 1 μmol/L, 37°C, 3 hours, colony count, n=3
Protocol: (§1) Pseudomonas aeruginosa (ATCC27853) was purchased from American Type Culture Collection (ATCC) and cultured in Luria Broth (LB) medium with shaking at 37 °C. For construction of ampicillin-resistant MSI001 strain (MSI001-Amp^r), the pET14b plasmid carrying Amp^r marker gene was introduced into the wild type MSI001 strain. The MSI001-Amp^r strain was cultured in LB medium supplemented with Ampicillin of 100 µg/ml at 37 °C.
(§2) Figure S4. Inhibitory effect of LL37 and VTK-LL37 fusion peptides on bacterial growth. a Effect of VTK-LL37 on the growth of Ampicillin resistant (Amp^r) MSI001 bacteria. The bacterial strain MSI001 was transfected with pET14b plasmid to produce an Ampicillin resistant (Amp^r) MSI001 strain. The VTK-LL37 or LL37 peptide was added to the cultured MSI001-Amp^r bacteria (1×10^3 CFU/ml) with a final concentration of 1 μmol/L. After incubation with the VTK-LL37 or LL37 peptides at 37°C for 3 hours, bacterial colonies were counted. b Effect of VTK-LL37 on the growth of Pseudomonas aeruginosa. The bacterial colonies of Pseudomonas aeruginosa were counted as above. […]

[2] = system: HMGB1; assay: HMGB1 quantitation in serum of septic mice (ELISA); assay type: in vivo, C57BL/6 mice; conditions: peptide by tail vein 1 h after bacterial injection; serum ELISA at 12 h; n = 8
Description: Wild-type C57 mice were intraperitoneally injected with MSI001 bacteria (6 × 10^6 CFU/g body weight) to reproduce a sepsis model. […] Normal saline (NS) was used as control. […] One hour after CLP modeling, the mice were intravenously injected with LL37 or VTK-LL37 peptide at a dosage of 0.2 nmol/g body weight. Equal volume of normal saline (NS) was used as control. […] The mice were intraperitoneally injected with MSI001 bacteria. One hour later, the mice were subjected to tail vein injection (TVI) with VTK-LL37 (VTK-LL37 group), LL37 (LL37 group) or an equivalent volume of NS (sepsis group). Wild-type mice without modeling were used as controls (control group). The blood bacteria were quantitated as colony forming units (CFU) 12 h after injection of bacteria. n = 8. *P < 0.05, compared to control; ^#P < 0.05, compared to sepsis group^; ΔP < 0.05, compared to LL37 group. Results are expressed as the median with range. d Suppression of VTK-LL37 on the production of HMGB1 in the blood of septic mice. […] Twelve hours after bacterial injection, HMGB1 in the serum was quantitated by ELISA. n = 8. *P < 0.05, compared to control; ^#P < 0.05, compared to sepsis group; ^ΔP < 0.05, compared to LL37 group^. Results are expressed as the mean ± SD. e, f Protective effect of VTK-LL37 against organ damage in mice subjected to bacterial injection. […]

[3] = system: MSI001-Amp^r bacteria; assay: Growth of ampicillin-resistant MSI001 bacteria; assay type: cell-based, Escherichia coli; conditions: 1×10^3 CFU/ml, peptide 1 μmol/L, 37°C, 3 hours, colony count, n=3
Protocol: as §1, §2

CVTKLGSLCVPGVGLLGDFFRKSKEKIGKEFKRIVQRIKDFLRNLVPRTES [VTK-LL37]
inhibitory effect on growth of Pseudomonas aeruginosa [1]: showed inhibitory effect on the growth of Pseudomonas aeruginosa
production of HMGB1 in serum of septic mice [2]: significantly suppressed the production of HMGB1 in the serum of septic mice, which was superior to LL37
inhibitive effect on growth of ampicillin-resistant MSI001 [3]: more significant inhibitive effect on the bacterial growth of the ampicillin-resistant MSI001 bacteria in comparison with LL37
